For series [1], the system named is HT29 colon tumor xenografts. Briefly: In vivo drug efficacy on xenografts in nude mice. Also on record: species or system Swiss nu/nu mice. The note with it: for CR nb (complete regression) / Cures nb (tumour-free mice at end) / PR nb (partial response): 9 mice; for TGI % (day): day 21; for Calc growth delay (TGD treated − TGD control): doses as in Treatment column; for Fraction T/C (treated RTV/control RTV × 100): mouse, in vivo.

The subject of series [2] is wt-p53 HT29-A4 cells. Particulars: 1 μM CPT-11 for 72 h, synchronized cells.
Procedure: (§1) Cells were maintained in DMEM medium supplemented with 10% fetal calf serum, and under continuous selection with geneticin for the wt-p53 HT29-A4 cell line.
(§2) Cells were synchronized in G0/G1 by serum starvation for 48 h. Addition of serum and fresh medium released cells from the block and promoted them to cycle. Cell cycle progression was analyzed by BrdU (5-bromo-2′-deoxiuridine; Sigma) incorporation as described (13).
Series [3] has as its system wt-p53 HT29-A4 cells. Briefly: Western blot of apoptosis markers (PARP p85, cleaved caspase-3). It counts as cell-based, human. Particulars: 1 μM CPT-11 for 72 h. For orientation: A western blot detects proteins with antibodies after separation by electrophoresis.
The test system of series [4] is wt-p53 HT29-A4 xenografts. Put plainly: Antitumor effects on xenografts in nude mice. The class given is in vivo, Swiss nu/nu mice. The note with it: for TGI, tumor growth inhibition: at sacrifice of first control mouse.
Series [5] concerns wt-p53 HT29-A4 cells. Put plainly: Cell cycle progression (BrdU incorporation). Particulars: 1 μM CPT-11, up to 36 h, G0/G1 synchronized cells.
Procedure: as §1, §2
The nature of a further series: in vivo. Particulars: Swiss nu/nu, mouse, po.
The conditions of series [6]: alone or in combination with chemotherapy, three to six 4-day cycles.
Setting [7] is: CPT-11 40 mg/kg/day i.p., 8 mice per group.

Values joined by “and” are separate entries in the source; they are usually repeats but may differ in a detail not shown here. Equal values may be shown once.

For `CCc1c2c(nc3ccc(OC(=O)N4CCC(N5CCCCC5)CC4)cc13)-c1cc3c(c(=O)n1C2)COC(=O)[C@]3(O)CC` [CPT-11, irinotecan], in series [1], the “CR nb (complete regression)” value turned out to be 0, the “Cures nb (tumour-free mice at end)” value worked out at 0, the “PR nb (partial response)” value is recorded as 0 and the “TGI % (day)” value came to 61.6%. In series [1], the Calc growth delay (TGD treated − TGD control) was 12.6 days and the “Fraction T/C (treated RTV/control RTV × 100)” value was 38.4. The “response of mut-p53 xenografts to CPT-11” value in series [1] (CPT-11 10 and 40 mg/kg/day i.p., data not shown) was “no response”. Besides, in the series on wt-p53 HT29-A4 cells [2], the “cell proliferation versus untreated cells and mut-p53 cells” value is listed as “significantly decreased cell proliferation”. Further, the “apoptosis (PARP p85 fragment, caspase-3 activation)” value with wt-p53 HT29-A4 cells [3] was “increased apoptosis”. In series [4] (CPT-11 10 mg/kg/day i.p.), the “Growth delay (treated/control TGT difference)” value is given as 10 days and the “TGI, tumor growth inhibition” value was determined as 60%. For the same compound, the “No. PR (partial response)” value in series [4] (CPT-11 10 mg/kg/day i.p., 10 mice per group) turned out to be 8. In addition, in series [4] (CPT-11 40 mg/kg/day i.p.), the “Growth delay (treated/control TGT difference)” value worked out at 22 days. Further, in series [4] (setting [7]), the “No. PR (partial response)” value came to 7 and the “No. cures (tumor-free mice at end of experiment)” value is given as 1. Also, the “TGI, tumor growth inhibition” value in series [4] (CPT-11 40 mg/kg/day i.p., 40 mg/kg/day) was 87% and 86%. Further, the “survival score of mice (tumors reaching 2000 mm3 as a function of time)” value in series [4] (CPT-11 at both doses (10 and 40 mg/kg/day)) is given as “significantly increased the survival score”. Besides, the cell cycle blockage entry in the series with wt-p53 HT29-A4 cells [5] was “blocked in early S phase”.

For the compound `CC[C@H](CO)Nc1nc(NCc2ccccc2)c2ncn(C(C)C)c2n1` [roscovitine, 6-benzylamino-2-[(R)-1-ethyl-2-hydroxyethylamino]-9-isopropylpurine], in series [1] (400 mg/kg/day for up to six weeks), the “antitumour activity as single agent” value is reported as “did not show antitumour activity”. Also, in series [1], the “CR nb (complete regression)” value is 0, the “Cures nb (tumour-free mice at end)” value stood at 0, the “PR nb (partial response)” value was found to be 0 and the “TGI % (day)” value is given as 30.4%. In series [1], the Calc growth delay (TGD treated − TGD control) was 3 days and the “Fraction T/C (treated RTV/control RTV × 100)” value came to 69.6. The compound further gave an MTD in the series “in vivo” of 400 mg/kg/day. The tolerance entry in series [6] is reported as “well tolerated”.

These data come from US20060148828A1, “Combination comprising a CDK inhibitor and a topoisomerase 1 inhibitor for the treatment of cancer and other proliferative diseases” (Cyclacel Limited, priority 2003, published 2006).
